Measured values as given in publication PMC11490872, “Drug-resistant menin variants retain high binding affinity and interactions with MLL1” (The Journal of Biological Chemistry, 2024).
Substitutions are numbered along the chain they refer to. Values belong to the molecule of their own block, whether it stands above or below them. Where no end group is shown, it is not given here.

Key:
[1] = biological target: T1, menin^G331D-FLSN-MLL1^4-43 (Homo sapiens, UniProt O00255, G326D); assay: FP competition, displacement of FLSN-MLL1^4-43 from menin^G331D; type: binding; details: even with increased incubation times, Fig. S6
T1 construct: The gene encoding full-length human menin was cloned into a pET32a expression vector; thioredoxin-His6 (cleaved yes); made in house; host or cells: E. coli BL21(DE3); probe peptide from GenScript
T1 sequence (O00255 1-610 G326D): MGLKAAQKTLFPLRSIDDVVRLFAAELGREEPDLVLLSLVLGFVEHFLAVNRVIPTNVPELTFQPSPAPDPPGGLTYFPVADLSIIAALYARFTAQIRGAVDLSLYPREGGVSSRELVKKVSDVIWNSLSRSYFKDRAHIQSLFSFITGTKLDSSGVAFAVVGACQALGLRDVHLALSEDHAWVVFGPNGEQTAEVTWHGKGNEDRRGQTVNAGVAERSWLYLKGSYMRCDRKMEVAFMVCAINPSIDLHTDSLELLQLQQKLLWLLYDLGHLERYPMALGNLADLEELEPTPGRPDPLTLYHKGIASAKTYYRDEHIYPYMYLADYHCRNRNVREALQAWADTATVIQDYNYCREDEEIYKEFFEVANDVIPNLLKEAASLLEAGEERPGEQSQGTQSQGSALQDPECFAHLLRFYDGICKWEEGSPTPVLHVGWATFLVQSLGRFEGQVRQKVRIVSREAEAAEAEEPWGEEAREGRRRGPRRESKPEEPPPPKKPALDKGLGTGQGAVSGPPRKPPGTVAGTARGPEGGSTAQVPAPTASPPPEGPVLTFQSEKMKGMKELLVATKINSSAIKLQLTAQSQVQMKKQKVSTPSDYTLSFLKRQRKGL
Description: To better understand the mechanism of MLL1 binding with menin mutants, we performed FP competition experiments using FLSN-MLL1^4-43 as a fluorescent probe for competitive displacement by MLL1 peptides ([25]). First, we tested competition with MLL1^160 and found very similar IC50 values for wild-type menin and the three mutants M327I, T349M, and G331R, ranging between 4.1 and 8 nM (Fig. 3, A and B). […] We have hypothesized that the lack of competition with MLL1 for the menin^G331D mutant might result from a much slower dissociation rate of the menin^G331D–MLL1 complex, and to evaluate this we performed time-dependent competition experiments with MLL1^160 and MLL1^46. Standard conditions in the FP assay include 3 h incubations of the menin-FLSN-MLL1^4-43 complex with competitors.
(§1) FP competition experiments used FLSN-MLL1^4-43 at 4 nM and menin at 4 nM against varying concentrations of unlabeled MLL1 peptides in FP buffer for IC50 determination. Protein-peptide complexes were incubated for 1 h before unlabeled peptide competitors were added to ensure complete binding. Unlabeled peptide competitors were incubated with the protein-peptide complexes for 3 h before measurement using the PHERAstar microplate reader ([25]). Experiments with Revumenib were run with the same steps and conditions but used 5% DMSO in the final solution. Kd and IC50 values were calculated using GraphPad Prism 10 by plotting mP values measured for each protein/MLL1 peptide or Revumenib as a function of protein/MLL1 peptide (or Revumenib) concentration ([25]). All FP binding and competition experiments were run in triplicate.

menin = biological target: menin; design: method as in PMID 20961854, PMID 22936661; details: cited from earlier work
menin^G331D = biological target: T2, menin^G331D (Homo sapiens, UniProt O00255, G326D); assay: FP binding of fluorescein-labeled MLL1 peptides to menin^G331D; details: versus menin^WT, Fig. 1B (FP and ITC)
T2 construct: The gene encoding full-length human menin was cloned into a pET32a expression vector; thioredoxin-His6 (cleaved yes); made in house; host or cells: E. coli BL21(DE3)
T2 sequence (O00255 1-610 G326D): T1 sequence (O00255 1-610 G326D)
Description: (§2) FP binding experiments utilized MLL1-derived peptides, FLSN-MLL1^4-43 at 4 nM and FLSN-MLL1^4-15 at 10 nM, titrated against a range of menin concentrations in the FP buffer (50 mM Tris pH 7.5, 50 mM NaCl, 1 mM TCEP) to obtain Kd measurements. Protein-peptide complexes were incubated for 1 h before measuring the change in fluorescence polarization and anisotropy at 525 nm after excitations at 495 nm using the PHERAstar microplate reader (BMG) ([2]).
as §1

menin^G331R = biological target: T3, menin^G331R (Homo sapiens, UniProt O00255, G326R); assay: FP binding of fluorescein-labeled MLL1 peptides to menin^G331R; details: versus menin^WT, Fig. 1B (FP and ITC)
T3 construct: The gene encoding full-length human menin was cloned into a pET32a expression vector; thioredoxin-His6 (cleaved yes); made in house; host or cells: E. coli BL21(DE3)
T3 sequence (O00255 1-610 G326R): T1 sequence (O00255 1-610 G326D) with D326R
Description: as §2, §1

[2] = tested on: patients with MLL1-r and NPM1-mut acute leukemias; details: cited from earlier work
[3] = biological target: MLL1 MBM1 6-13 (Homo sapiens) (UniProt Q03164); details: cited from earlier work
MLL1 MBM1 6-13 (Homo sapiens), sequence (Q03164 whole entry, looked up, tested part not stated): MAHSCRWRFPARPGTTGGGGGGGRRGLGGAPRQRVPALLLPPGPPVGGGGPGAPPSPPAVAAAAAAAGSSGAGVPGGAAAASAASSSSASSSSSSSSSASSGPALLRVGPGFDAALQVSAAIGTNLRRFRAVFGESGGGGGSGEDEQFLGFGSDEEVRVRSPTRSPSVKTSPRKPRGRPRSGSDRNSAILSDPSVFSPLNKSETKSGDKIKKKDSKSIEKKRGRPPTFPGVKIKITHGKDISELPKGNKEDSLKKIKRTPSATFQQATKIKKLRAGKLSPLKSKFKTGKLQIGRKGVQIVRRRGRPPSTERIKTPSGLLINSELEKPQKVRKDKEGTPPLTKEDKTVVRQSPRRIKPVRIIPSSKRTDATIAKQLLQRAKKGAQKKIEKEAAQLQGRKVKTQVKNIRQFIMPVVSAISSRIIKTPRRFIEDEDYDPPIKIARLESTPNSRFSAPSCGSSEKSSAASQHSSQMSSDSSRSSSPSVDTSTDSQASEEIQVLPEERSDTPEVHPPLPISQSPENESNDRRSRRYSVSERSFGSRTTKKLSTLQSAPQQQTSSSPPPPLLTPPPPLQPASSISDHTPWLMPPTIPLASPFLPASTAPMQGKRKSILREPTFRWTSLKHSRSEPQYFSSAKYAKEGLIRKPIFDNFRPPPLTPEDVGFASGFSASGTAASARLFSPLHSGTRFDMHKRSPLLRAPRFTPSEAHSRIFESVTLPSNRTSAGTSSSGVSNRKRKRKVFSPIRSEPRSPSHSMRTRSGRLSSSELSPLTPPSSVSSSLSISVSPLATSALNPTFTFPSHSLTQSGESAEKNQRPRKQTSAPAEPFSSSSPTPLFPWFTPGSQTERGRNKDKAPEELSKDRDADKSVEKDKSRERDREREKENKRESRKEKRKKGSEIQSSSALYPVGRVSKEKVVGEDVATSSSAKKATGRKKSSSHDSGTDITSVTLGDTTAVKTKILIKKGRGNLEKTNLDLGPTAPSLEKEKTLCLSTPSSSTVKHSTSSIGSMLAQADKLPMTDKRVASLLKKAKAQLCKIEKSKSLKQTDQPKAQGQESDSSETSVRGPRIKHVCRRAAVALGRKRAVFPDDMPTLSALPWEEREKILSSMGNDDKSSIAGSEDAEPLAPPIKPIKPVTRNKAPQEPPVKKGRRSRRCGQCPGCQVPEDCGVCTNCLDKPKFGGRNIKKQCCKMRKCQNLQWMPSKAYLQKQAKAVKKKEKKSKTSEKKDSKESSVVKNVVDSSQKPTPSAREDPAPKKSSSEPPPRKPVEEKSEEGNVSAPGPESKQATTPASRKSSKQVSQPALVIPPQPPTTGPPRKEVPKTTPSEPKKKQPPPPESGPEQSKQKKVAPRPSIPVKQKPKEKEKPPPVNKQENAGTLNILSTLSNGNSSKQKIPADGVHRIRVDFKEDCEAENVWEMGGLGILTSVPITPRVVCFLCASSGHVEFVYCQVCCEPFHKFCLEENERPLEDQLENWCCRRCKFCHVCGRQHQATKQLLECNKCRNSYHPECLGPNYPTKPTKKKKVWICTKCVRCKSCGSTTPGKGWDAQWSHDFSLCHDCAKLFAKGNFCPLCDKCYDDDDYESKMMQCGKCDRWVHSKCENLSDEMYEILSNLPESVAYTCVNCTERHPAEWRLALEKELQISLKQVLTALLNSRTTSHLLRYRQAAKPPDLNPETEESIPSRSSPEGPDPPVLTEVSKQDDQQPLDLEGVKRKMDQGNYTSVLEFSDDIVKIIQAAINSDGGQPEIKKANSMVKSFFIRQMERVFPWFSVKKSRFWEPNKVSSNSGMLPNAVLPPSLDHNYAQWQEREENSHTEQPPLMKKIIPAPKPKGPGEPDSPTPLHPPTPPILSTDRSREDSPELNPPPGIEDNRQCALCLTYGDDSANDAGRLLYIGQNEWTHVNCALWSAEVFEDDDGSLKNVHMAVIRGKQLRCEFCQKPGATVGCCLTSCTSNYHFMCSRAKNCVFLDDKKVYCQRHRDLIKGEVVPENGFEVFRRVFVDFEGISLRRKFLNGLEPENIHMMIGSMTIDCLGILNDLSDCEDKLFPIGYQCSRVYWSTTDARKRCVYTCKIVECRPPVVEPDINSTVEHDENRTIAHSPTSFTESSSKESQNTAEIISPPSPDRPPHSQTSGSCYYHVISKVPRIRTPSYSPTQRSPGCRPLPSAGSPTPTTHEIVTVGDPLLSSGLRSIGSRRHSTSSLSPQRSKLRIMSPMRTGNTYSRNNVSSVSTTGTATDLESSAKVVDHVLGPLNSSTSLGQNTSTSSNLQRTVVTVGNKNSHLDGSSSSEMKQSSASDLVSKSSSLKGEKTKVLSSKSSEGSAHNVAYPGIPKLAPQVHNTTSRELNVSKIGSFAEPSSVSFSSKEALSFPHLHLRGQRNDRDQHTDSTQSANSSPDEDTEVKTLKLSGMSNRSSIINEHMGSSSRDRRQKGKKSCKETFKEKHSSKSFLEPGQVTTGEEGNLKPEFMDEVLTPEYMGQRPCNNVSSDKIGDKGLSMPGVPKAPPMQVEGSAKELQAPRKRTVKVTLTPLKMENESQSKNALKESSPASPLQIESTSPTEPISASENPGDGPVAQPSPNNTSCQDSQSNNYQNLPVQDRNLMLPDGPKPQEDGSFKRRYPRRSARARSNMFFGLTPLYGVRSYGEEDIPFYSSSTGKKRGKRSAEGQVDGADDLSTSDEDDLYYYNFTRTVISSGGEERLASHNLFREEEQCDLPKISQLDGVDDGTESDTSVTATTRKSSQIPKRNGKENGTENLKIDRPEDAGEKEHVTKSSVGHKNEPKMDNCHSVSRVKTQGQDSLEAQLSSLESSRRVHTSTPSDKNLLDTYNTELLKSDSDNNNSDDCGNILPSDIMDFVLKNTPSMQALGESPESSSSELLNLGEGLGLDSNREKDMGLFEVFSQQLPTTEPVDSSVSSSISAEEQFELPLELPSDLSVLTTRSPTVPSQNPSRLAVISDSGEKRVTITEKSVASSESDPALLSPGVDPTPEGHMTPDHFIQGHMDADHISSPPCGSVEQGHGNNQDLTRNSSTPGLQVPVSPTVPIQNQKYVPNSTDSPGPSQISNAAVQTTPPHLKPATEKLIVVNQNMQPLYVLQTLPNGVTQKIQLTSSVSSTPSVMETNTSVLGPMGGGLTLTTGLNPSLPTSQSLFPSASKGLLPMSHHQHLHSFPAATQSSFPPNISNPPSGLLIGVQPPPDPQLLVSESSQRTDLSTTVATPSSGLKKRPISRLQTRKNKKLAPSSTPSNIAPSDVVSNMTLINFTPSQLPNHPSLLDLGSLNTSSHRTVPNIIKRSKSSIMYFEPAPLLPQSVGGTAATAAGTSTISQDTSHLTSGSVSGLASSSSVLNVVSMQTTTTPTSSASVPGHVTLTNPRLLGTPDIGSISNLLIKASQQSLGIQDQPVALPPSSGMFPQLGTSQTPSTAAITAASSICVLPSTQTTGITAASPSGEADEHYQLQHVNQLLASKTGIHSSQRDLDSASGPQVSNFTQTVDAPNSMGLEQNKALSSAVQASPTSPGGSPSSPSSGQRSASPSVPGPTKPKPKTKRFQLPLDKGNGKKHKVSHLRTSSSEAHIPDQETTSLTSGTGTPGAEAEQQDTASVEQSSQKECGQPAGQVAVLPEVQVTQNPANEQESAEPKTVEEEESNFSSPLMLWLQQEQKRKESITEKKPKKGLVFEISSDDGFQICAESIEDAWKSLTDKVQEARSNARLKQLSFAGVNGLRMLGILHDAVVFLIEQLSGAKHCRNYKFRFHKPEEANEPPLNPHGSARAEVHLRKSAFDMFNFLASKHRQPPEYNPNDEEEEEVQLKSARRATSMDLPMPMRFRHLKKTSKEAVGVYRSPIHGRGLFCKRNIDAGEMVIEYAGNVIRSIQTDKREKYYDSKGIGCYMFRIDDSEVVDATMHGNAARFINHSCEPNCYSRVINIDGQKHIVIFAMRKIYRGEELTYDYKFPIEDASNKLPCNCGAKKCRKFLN

[4] = biological target: MLL1 MBM2 24-40 (Homo sapiens) (UniProt Q03164); details: cited from earlier work
[5] = tested on: wild-type, M327I, T349M, and G331R menin bound to FLSN-MLL1^4-43; assay: FP competition, stated over wild-type, M327I, T349M and G331R menin; type: binding, human; details: versus MLL1^46
Description: as §1

[6] = Phase 1/2, AML patients with KMT2A (MLL1) rearrangements and NPM1 mutations

Molecule: MBM2: menin binding motif 2, residues 24 to 40 of MLL1 (RRGLGGAPRQRVPALLL; UniProt Q03164 24-40, looked up, fragment)
Kd (menin): 1000 nM

Molecule: CNc1nc(NC2CCN(Cc3ccc4c(cc(C#N)n4C[C@H](C)N4CCN(S(C)(=O)=O)CC4)c3C)CC2)c2cc(CC(F)(F)F)sc2n1 [Ziftomenib]
complete remission [2, 6]: ~35%
overall response rate [2, 6]: ~45%
rate of complete remission ([2]; phase 1/2 first-in-human trials, MLL1-r and NPM1-mut acute leukemias): over 30%

Molecule: Menin (from UniProt O00255)
Kd [3]: 56 nM
Kd [4]: 1000 nM

Molecule: C[C@H](NC(=O)[C@@H](N)CO)C(=O)N[C@@H](CCCNC(=N)N)C(=O)N[C@@H](Cc1c[nH]c2ccccc12)C(=O)N[C@@H](CCCNC(=N)N)C(=O)N[C@@H](Cc1ccccc1)C(=O)N1CCC[C@H]1C(=O)N[C@@H](C)C(=O)N[C@@H](CCCNC(=N)N)C(=O)N1CCC[C@H]1C(=O)NCC(=O)N[C@H](C(N)=O)[C@@H](C)O [MLL1^4-15]
decrease in binding affinity for G331D (menin^G331D): ~10 fold
decrease in binding affinity for G331R (menin^G331R): approximately 3 fold
weaker competition activity than MLL1^46 [5]: 3 orders of magnitude

Continued, values first:

competition for the menin^G331D variant [1]: no significant competition
Molecule: SARWRFPARPGTTGGGGGGGRRGLG-NH2 (C-terminus assumed) [MLL1^4-28, reference compound]

decrease in binding affinity for G331D (menin^G331D): 10 fold
decrease in binding affinity for G331R (menin^G331R): 3 fold
Molecule: MBM1: menin binding motif 1, amino acid residues 6 to 13 of MLL1 (RWRFPARP; UniProt Q03164 6-13, looked up, fragment)
